# Laboratory results taken from patent publication US4582822A, “Antibiotic A80190, pharmaceutical compositions containing same and method of use” (Eli Lilly and Company, priority 1984, dated 1986).
# “And” between values parts separate entries of the source, which are not always exact repeats. Identical values can stand only once.
# Assays:
# [1] = pKa in 66% aqueous dimethylformamide; assay type: physicochemical
# Source text: (§1) Antibiotic A80190 has been assigned structure 1 based on X-ray crystallographic studies. A80190 (in its free acid form) has the following characteristics: […]
# Solubility = assay type: physicochemical
# Source text: as §1
# Bacillus subtilis = assay: Disc-diffusion, zone of inhibition; assay type: cell-based; conditions: 6-mm pads dipped in 1 mg/ml
# Method: (§2) The inhibitory activity of A80190 is illustrated in Table VI. Activity was measured by the conventional disc-diffusion method (6-mm pads were dipped in solutions containing 1 mg of compound per ml of solution; pads were placed on agar plates seeded with test organism).
# Candida albicans = assay: Disc-diffusion, zone of inhibition; assay type: cell-based; conditions: 6-mm pads dipped in 1 mg/ml
# Method: as §2
# Micrococcus luteus = assay: Disc-diffusion, zone of inhibition; assay type: cell-based; conditions: 6-mm pads dipped in 1 mg/ml
# Method: as §2
# Mycobacterium avium = assay: Disc-diffusion, zone of inhibition; assay type: cell-based; conditions: 6-mm pads dipped in 1 mg/ml
# Method: as §2
# Neurospora crassa = assay: Disc-diffusion, zone of inhibition; assay type: cell-based; conditions: 6-mm pads dipped in 1 mg/ml
# Method: as §2
# [2] = tested on: Saccharomyces pastorianus; assay: Disc-diffusion, zone of inhibition; assay type: cell-based; conditions: 6-mm pads dipped in 1 mg/ml
# Method: as §2
# Staphylococcus aureus = assay: Disc-diffusion, zone of inhibition; assay type: cell-based; conditions: 6-mm pads dipped in 1 mg/ml
# Method: as §2
# [3] = tested on: Bacteroides corrodens 1874; assay: Agar-dilution MIC, anaerobic bacteria; assay type: cell-based; conditions: 24-hour incubation
# Method: (§3) One important aspect of the antimicrobial activity of A80190 compounds relates to their activity against anaerobic bacteria. The minimal inhibitory concentrations (MIC's) at which A80190 inhibits various anaerobic bacteria, as determined by standard agar-dilution assay, are summarized in Table VII. End points were read after 24-hour incubation.
# Bacteroides fragilis 111 = assay: Agar-dilution MIC, anaerobic bacteria; assay type: cell-based; conditions: 24-hour incubation
# Method: as §3
# [4] = tested on: Bacteroides fragilis 1877; assay: Agar-dilution MIC, anaerobic bacteria; assay type: cell-based; conditions: 24-hour incubation
# Method: as §3
# [5] = tested on: Bacteroides fragilis 1936B; assay: Agar-dilution MIC, anaerobic bacteria; assay type: cell-based; conditions: 24-hour incubation
# Method: as §3
# [6] = tested on: Bacteroides melaninogenicus 1856/28; assay: Agar-dilution MIC, anaerobic bacteria; assay type: cell-based; conditions: 24-hour incubation
# Method: as §3
# [7] = tested on: Bacteroides melaninogenicus 2736; assay: Agar-dilution MIC, anaerobic bacteria; assay type: cell-based; conditions: 24-hour incubation
# Method: as §3
# [8] = tested on: Bacteroides thetaiotaomicron 1438; assay: Agar-dilution MIC, anaerobic bacteria; assay type: cell-based; conditions: 24-hour incubation
# Method: as §3
# [9] = tested on: Clostridium difficile 2994; assay: Agar-dilution MIC, anaerobic bacteria; assay type: cell-based; conditions: 24-hour incubation
# Method: as §3
# [10] = tested on: Clostridium septicum 1128; assay: Agar-dilution MIC, anaerobic bacteria; assay type: cell-based; conditions: 24-hour incubation
# Method: as §3
# [11] = tested on: Clostridium perfringens 81; assay type: cell-based; conditions: 24-hour incubation
# [12] = tested on: Eubacterium aerofaciens 1235; assay: Agar-dilution MIC, anaerobic bacteria; assay type: cell-based; conditions: 24-hour incubation
# [13] = tested on: Peptococcus asaccharolyticus 1302; assay: Agar-dilution MIC, anaerobic bacteria; assay type: cell-based; conditions: 24-hour incubation
# Petococcus prevoti 1281 = assay: Agar-dilution MIC, anaerobic bacteria; assay type: cell-based; conditions: 24-hour incubation
# [14] = tested on: Peptostreptococcus anaerobius 1428; assay: Agar-dilution MIC, anaerobic bacteria; assay type: cell-based; conditions: 24-hour incubation
# [15] = tested on: Peptostreptococcus intermedius 1624; assay: Agar-dilution MIC, anaerobic bacteria; assay type: cell-based; conditions: 24-hour incubation
# [16] = tested on: Propionibacterium acnes 79; assay: Agar-dilution MIC, anaerobic bacteria; assay type: cell-based; conditions: 24-hour incubation
# [17] = tested on: Bacteroides vulgatis 1211; assay: Agar-dilution MIC, anaerobic bacteria; assay type: cell-based; conditions: 24-hour incubation
# [18] = tested on: Fusobacterium symbiosum 1470; assay: Agar-dilution MIC, anaerobic bacteria; assay type: cell-based; conditions: 24-hour incubation
# [19] = tested on: Fusobacterium necrophorum 6054A; assay: Agar-dilution MIC, anaerobic bacteria; assay type: cell-based; conditions: 24-hour incubation
# Eimeria tenella = assay: In vitro tissue culture screen, anticoccidial; assay type: cell-based; set-up: key: C: cytotoxic; A: active; S: slightly active; N: not active
# Source text: Anticoccidial activity is an important property of the A80190 compounds. Table VIII summarizes the results of an in vitro tissue culture screen of A-80190 compounds vs. Eimeria tenella.
# [20] = tested on: volatile-fatty-acid (VFA) production, rumen; assay: Ruminant feed-utilization efficiency, VFA ratio treated/control flasks
# Source text: The efficiency of feed use can be monitored by observing the production and concentration of propionate compounds in the rumen using the method described by Arthur P. Raun in U.S. Pat. No. 3,794,732 (see especially Example 5).
# Caenorhabditis elegans = assay: Anthelmintic activity; conditions: in vivo
# Treponema hyodysenteriae = assay: Growth inhibition, swine dysentery agent; assay type: cell-based
# mosquito larvae = assay: Insecticidal activity; conditions: in vivo
# blowfly larvae = assay: Insecticidal activity; conditions: in vivo
# adult housefly = assay: Insecticidal activity; conditions: in vivo
# Mexican bean beetle = assay: Insecticidal activity; conditions: in vivo
# southern armyworm = assay: Insecticidal activity; conditions: in vivo
# two-spotted spider mite = assay: Acaricidal activity; conditions: in vivo
# crabgrass = assay: Herbicidal activity; assay type: in vivo; conditions: 200 gpa; either pre-emergence or post-emergence
# mustard = assay: Herbicidal activity; assay type: in vivo; conditions: 200 gpa; either pre-emergence or post-emergence
# pigweed = assay: Herbicidal activity; assay type: in vivo; conditions: 200 gpa; either pre-emergence or post-emergence
# Polio III virus = assay type: cell-based; conditions: tissue culture
# [21] = Ionophorous (ion-transport) activity with cations
# [22] = tested on: natural and artificial membranes; assay: Cation permeability of membranes
# mitochondrial ATPase = assay: Inhibition of mitochondrial ATPase in vitro; assay type: biochemical
# Source text: In yet another aspect, the A80190 compounds are active as inhibitors of the enzyme ATPase. ATPase, an alkali-metal-sensitive enzyme found in cell membranes, is involved in the energy necessary for active transport. "Active transport" refers to the energy requiring series of operations whereby intracellular and extracellular fluids maintain their compositions. Inhibitors of ATPase reduce the energy required for active transport. In vitro tests have shown that A80190 inhibits mitochondrial ATPase with a half-effective concentration (IC50) of 0.5 μg/ml.
# A. macra = assay: Resistance to antibiotics, sensitivity discs on seeded agar; assay type: cell-based, Actinomadura macra
# Method: (§4) Resistance to antibiotics was measured by padding antibiotic sensitivity discs onto the surface of seeded ISP No. 2 agar plates.
# (§5) Table III lists the resistance of the strain to various antibiotics at the concentrations indicated and compares it to that of A. macra.
# NRRL 15878 = assay: as above; assay type: cell-based, Actinomadura oligospora
# Method: as §4, §5
compound,measurement,setting,value
CC[C@@H](O)[C@]1(C)C[C@H](C)[C@@](O)([C@H]2C[C@H](C)[C@H]([C@]3(C)C[C@@H](O[C@H]4CC[C@H](OC)[C@@H](C)O4)[C@H]([C@@H]4CC[C@@]5(O[C@H]([C@@H](C)[C@@H](OC)[C@H](C)C(=O)O)[C@H](C)[C@@H](OC)[C@H]5C)O4)O3)O2)O1 [A80190],pKa,[1],6.2
same,Solubility,Solubility; organic solvents,"soluble in lower alcohols such as methanol, ketones such as acetone, esters such as ethyl acetate, halogenated hydrocarbons such as chloroform and hydrocarbons such as diethyl ether, benezene, toluene and warm hexane"
same,Solubility,Solubility; water,Insoluble in water
same,Zone of Inhibition,Bacillus subtilis,23 mm diameter
same,Zone of Inhibition,Candida albicans,14 mm diameter
same,Zone of Inhibition,Micrococcus luteus,20 mm diameter
same,Zone of Inhibition,Mycobacterium avium,21 mm diameter
same,Zone of Inhibition,Neurospora crassa,14 mm diameter
same,Zone of Inhibition,[2],10 mm diameter
same,Zone of Inhibition,Staphylococcus aureus,17 mm diameter
same,MIC,[3],> 128 µg/mL
same,MIC,Bacteroides fragilis 111,> 128 µg/mL
same,MIC,[4],> 128 µg/mL
same,MIC,[5],> 128 µg/mL
same,MIC,[6],> 128 µg/mL
same,MIC,[7],> 128 µg/mL
same,MIC,[8],> 128 µg/mL
same,MIC,[9],< 0.5 µg/mL
same,MIC,[10],< 0.5 µg/mL
same,MIC,[11],< 0.5 µg/mL
same,MIC,[12],< 0.5 µg/mL
same,MIC,[13],1 µg/mL
same,MIC,Petococcus prevoti 1281,< 0.5 µg/mL
same,MIC,[14],1 µg/mL
same,MIC,[15],1 µg/mL
same,MIC,[16],1 µg/mL
same,MIC,[17],16 µg/mL
same,MIC,[18],8 µg/mL
same,MIC,[19],16 µg/mL
same,Activity vs. Eimeria tenella In Vitro,Eimeria tenella; 0.008 μg/ml,A
same,Activity vs. Eimeria tenella In Vitro,Eimeria tenella; 0.04 μg/ml,A
same,Activity vs. Eimeria tenella In Vitro,Eimeria tenella; 0.2 μg/ml,A
same,Activity vs. Eimeria tenella In Vitro,Eimeria tenella; 1 μg/ml,C
same,Activity vs. Eimeria tenella In Vitro,Eimeria tenella; 5 μg/ml,C
same,Molar % Acetate (ratio treated/control),[20]; 0.3 mcg/ml,0.970
same,Molar % Butyrate (ratio treated/control),[20]; 0.3 mcg/ml,0.819
same,Molar % Propionate (ratio treated/control),[20]; 0.3 mcg/ml,1.220
same,Total VFA/Control VFA,[20]; 0.3 mcg/ml,0.967 mM/L
same,Molar % Acetate (ratio treated/control),[20]; 1 mcg/ml,0.986 and 0.892 and 1.016 and 0.926
same,Molar % Butyrate (ratio treated/control),[20]; 1 mcg/ml,0.851 and 0.813 and 0.706 and 0.529
same,Molar % Propionate (ratio treated/control),[20]; 1 mcg/ml,1.185 and 1.403 and 1.247 and 1.566
same,Total VFA/Control VFA,[20]; 1 mcg/ml,0.916 mM/L and 0.887 mM/L and 0.857 mM/L and 0.913 mM/L
same,Molar % Acetate (ratio treated/control),[20]; 3 mcg/ml,0.998
same,Molar % Butyrate (ratio treated/control),[20]; 3 mcg/ml,0.611
same,Molar % Propionate (ratio treated/control),[20]; 3 mcg/ml,1.368
same,Total VFA/Control VFA,[20]; 3 mcg/ml,0.963 mM/L
same,active at levels as low as,Caenorhabditis elegans,20 ppm
same,inhibits the growth at levels as low as,Treponema hyodysenteriae,0.39 µg/mL
same,active at levels as low as,mosquito larvae,< 50 ppm
same,active at levels as low as,blowfly larvae,35 ppm
same,active at levels as low as,adult housefly,35 ppm
same,active at levels as low as,Mexican bean beetle,< 100 ppm
same,active at levels as low as,southern armyworm,< 100 ppm
same,active when applied at a rate as low as,two-spotted spider mite,25 ppm
same,active at (application rate),crabgrass,2 lb/acre
same,active at (application rate),mustard,2 lb/acre
same,active at (application rate),pigweed,2 lb/acre
same,active at a level of,Polio III virus,2000 µg/mL
same,"ionophorous effect, cation preference","[21]; 0.2 μg/ml, Cs+ vs Na+",even greater ionophorous effect with Cs^+ than with Na^+ as cation
same,ionophorous activity,[21]; 0.5 μg/ml,showed ionophorous activity
same,"ionophorous activity, cation preference","[21]; 0.5 μg/ml, Na+, K+ and Rb+ vs Cs+ or Li+","activity with Na^+, K^+ and Rb^+ was better than that with Cs^+ or Li^+"
same,cation permeability,[22],alters the cation permeability of both natural and artificial membranes
same,half-effective concentration (IC50),mitochondrial ATPase,0.5 µg/mL
CCC[C@@H]1C[C@@H](C(=O)N[C@@H]([C@H]2O[C@H](SC)[C@H](O)[C@@H](O)[C@H]2O)[C@@H](C)O)N(C)C1 [Lincomycin],Resistance to Antibiotics,A. macra; 2 μg,+
NC[C@@H]1O[C@H](O[C@H]2[C@@H](O)[C@H](O[C@@H]3[C@@H](O)[C@H](N)C[C@H](N)[C@H]3O[C@H]3O[C@H](CN)[C@@H](O)[C@H](O)[C@H]3N)O[C@@H]2CO)[C@H](N)[C@@H](O)[C@@H]1O [Neomycin],Resistance to Antibiotics,NRRL 15878; 30 μg,-
same,Resistance to Antibiotics,A. macra; 30 μg,-
NC[C@H]1O[C@H](O[C@H]2[C@H](O)[C@@H](O[C@H]3O[C@H](CO)[C@@H](O)[C@H](N)[C@H]3O)[C@H](N)C[C@@H]2N)[C@H](N)C[C@@H]1O [Tobramycin],Resistance to Antibiotics,A. macra; 10 μg,-
Oleandomycin,Resistance to Antibiotics,NRRL 15878; 15 μg,-
